Reference: patent publication US9062087B2, “Phenyl C-glucoside derivatives, preparation methods and uses thereof” (Tianjin Institute of Pharmaceutical Research, priority 2010, dated 2015)

System: healthy ICR mice
Assay: glucose tolerance test in fasted ICR mice (in vivo hypoglycemic model), serum glucose by glucose oxidase method
Settings: ICR mice fasted 16 h, dosage 10 mg/kg in 1% sodium carboxymethylcellulose, 2 g/kg glucose i.p. 2 h after test compound (Dapagliflozin: 1.5 h); for blood glucose at 0.5 h: serum 0.5 h after glucose; for blood glucose at 1 h: serum 1 h after glucose; for blood glucose at 2 h: serum 2 h after glucose; for blood glucose at 3 h: serum 3 h after glucose; for blood glucose at 4 h: serum 4 h after glucose
Method: A suspension of the test compounds with […] was prepared by dissolving the sample in 1% sodium carboxymethylcellulose solution. The administration dosage is 0.2 ml/20 g body weight, which equals to a dosage of 10 mg/kg.
Female and male of healthy ICR mice are half to half, and the weight is 20-24 g, in accordance with standard level one. Animals were fasted for 16 hours. 2 g/kg glucose in saline was intraperitoneally injected 2 hours after the test compounds (for Dapagliflozin, glucose was injected 1.5 hours after medicine), and blood samples were collected from mice tall vein using capillary at fixed times of 0.5 h, 1 h, 2 h, 3 h and 4 h after challenging with glucose. The sera were separated using centrifugation. The glucose oxidase method was used to measure glucose content of serum at different time points.

SMILES | blood glucose at 0.5 h [mg/dL] | blood glucose at 1 h [mg/dL] | blood glucose at 2 h [mg/dL] | blood glucose at 3 h [mg/dL] | blood glucose at 4 h [mg/dL]
CCOc1ccc(C(C)(F)c2cc([C@@H]3O[C@H](CO)[C@@H](O)[C@H](O)[C@H]3O)ccc2Cl)cc1 (stereo partly drawn) [Example 52, 1-{4-chloro-3-[1-(4-ethyoxyphenyl)-1-fluoroethyl]phenyl}-1-deoxy-β-D-glucopyranose] | 209.3 ± 30.4 | 175.1 ± 20.5 | 158.6 ± 31.1 | 101.2 ± 12.4 | 80.0 ± 13.2
CCOc1ccc(C(OC)c2cc([C@@H]3O[C@H](CO)[C@@H](O)[C@H](O)[C@H]3O)ccc2Cl)cc1 (stereo partly drawn) [Example 53, 1-{4-chloro-3-[1-(4-ethyoxyphenyl)(methoxyl)methyl]phenyl}-1-deoxy-β-D-glucopyranose] | 199.0 ± 21.3 | 171.4 ± 36.1 | 110.2 ± 20.8 | 93.0 ± 17.7 | 69.6 ± 17.3
CCOc1ccc(Cc2cc([C@@H]3O[C@H](CO)[C@@H](O)[C@H](O)[C@H]3O)ccc2Cl)cc1 [Dapagliflozin, reference compound] | 277.1 ± 42.4 | 172.1 ± 34.1 | 92.1 ± 21.1 | 81.3 ± 20.1 | 60.0 ± 11.0
CCOc1ccc(C(C)c2cc([C@@H]3O[C@H](CO)[C@@H](O)[C@H](O)[C@H]3O)ccc2Cl)cc1 (stereo partly drawn) [Example 36, 1-{4-chloro-3-[1-(4-ethyoxyphenyl)ethyl]phenyl}-1-deoxy-β-D-glucopyranose] | 189.1 ± 21.2 | 120.1 ± 10.2 | 113.0 ± 11.0 | 74.6 ± 21.0 | 69.1 ± 13.2
CCOc1ccc(C(C)(C)c2cc([C@@H]3O[C@H](CO)[C@@H](O)[C@H](O)[C@H]3O)ccc2Cl)cc1 [Example 16, 1-{4-chloro-3-[(dimethyl)(4-ethyoxyphenyl)methyl]phenyl}-1-deoxy-β-D-glucopyranose] | 157.1 ± 21.3 | 137.0 ± 27.7 | 102.4 ± 17.5 | 88.1 ± 32.2 | 70.3 ± 14.2
CCOc1ccc(C(C)(OC)c2cc([C@@H]3O[C@H](CO)[C@@H](O)[C@H](O)[C@H]3O)ccc2Cl)cc1 (stereo partly drawn) [Example 51, 1-{4-chloro-3-[1-(4-ethyoxyphenyl)-1-methoxyethyl]phenyl}-1-deoxy-β-D-glucopyranose] | 250.5 ± 33.1 | 158.2 ± 20.6 | 123.2 ± 33.1 | 101.2 ± 11.7 | 75.5 ± 21.4
CCOc1ccc(C(F)c2cc([C@@H]3O[C@H](CO)[C@@H](O)[C@H](O)[C@H]3O)ccc2Cl)cc1 (stereo partly drawn) [Example 1, 1-{4-chloro-3-[(4-ethyoxyphenyl)fluoromethyl]phenyl}-1-deoxy-β-D-glucopyranose] | 194.1 ± 41.3 | 161.1 ± 35.4 | 97.3 ± 31.2 | 69.1 ± 22.1 | 67.2 ± 17.1
